Reference: PubChem BioAssay (NCI)
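The compound was tested at five concentrations on cells cultured in 96-well plates, with a 48-hour exposure period. Abbreviation: GI50, concentration required for 50% inhibition of growth. TGI marks complete inhibition of growth.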

Experiments:
Experiment in all cases: NCI anticancer screen, dose series, 48 h
MDA-N = system: MDA-N
OVCAR-3 ovarian = system: OVCAR-3 ovarian
K-562 leukemia = system: K-562 leukemia
BT-549 breast = system: BT-549 breast
U251 CNS = system: U251 CNS
HT29 colon = system: HT29 colon
CAKI-1 renal = system: CAKI-1 renal
UACC-257 melanoma = system: UACC-257 melanoma
HS 578T breast = system: HS 578T breast
PC-3 prostate = system: PC-3 prostate
RPMI-8226 leukemia = system: RPMI-8226 leukemia

## CCCCCCCCC/C=C1\CC(CO)(COC(=O)C2CCCCC2)OC1=O (stereo not given)
MDA-N
  TGI: 38.8 µM
OVCAR-3 ovarian
  TGI: 33.4 µM
K-562 leukemia
  TGI: > 100 µM
BT-549 breast
  TGI: 36.2 µM
U251 CNS
  TGI: 42.6 µM
HT29 colon
  TGI: 42 µM
CAKI-1 renal
  TGI: 49.3 µM
UACC-257 melanoma
  TGI: 87.4 µM
HS 578T breast
  TGI: 41 µM
PC-3 prostate
  TGI: 40.4 µM

## CN(C)C(=O)Nc1cc2c3c(c1)CCCN3CCC2
MDA-N
  TGI: > 10 µM
OVCAR-3 ovarian
  TGI: > 10 µM
RPMI-8226 leukemia
  TGI: > 10 µM
K-562 leukemia
  TGI: > 10 µM
U251 CNS
  TGI: > 10 µM
HT29 colon
  TGI: > 10 µM
CAKI-1 renal
  TGI: > 10 µM
UACC-257 melanoma
  TGI: > 10 µM
HS 578T breast
  TGI: > 10 µM
PC-3 prostate
  TGI: > 10 µM

## Cc1cccc2[s+]snc12
OVCAR-3 ovarian
  TGI: > 89 µM
RPMI-8226 leukemia
  TGI: > 81.4 µM
K-562 leukemia
  TGI: 59.3 µM
U251 CNS
  TGI: > 100 µM
HT29 colon
  TGI: > 100 µM
CAKI-1 renal
  TGI: > 100 µM
UACC-257 melanoma
  TGI: > 100 µM

## COc1cc(NCc2ccc3nc(OC)c(OC)nc3c2)cc(OC)c1OC
MDA-N
  TGI: > 100 µM
OVCAR-3 ovarian
  TGI: > 100 µM
K-562 leukemia
  TGI: > 100 µM
U251 CNS
  TGI: > 100 µM
HT29 colon
  TGI: > 100 µM
CAKI-1 renal
  TGI: > 100 µM
UACC-257 melanoma
  TGI: > 100 µM
PC-3 prostate
  TGI: > 100 µM

## Cn1c(Nc2ccccc2)c(C=Nc2ccccc2)c(=O)n(C)c1=O
MDA-N
  TGI: > 100 µM
OVCAR-3 ovarian
  TGI: > 100 µM
RPMI-8226 leukemia
  TGI: > 100 µM
K-562 leukemia
  TGI: > 100 µM
BT-549 breast
  TGI: > 100 µM
U251 CNS
  TGI: > 100 µM
HT29 colon
  TGI: > 100 µM
UACC-257 melanoma
  TGI: > 100 µM
PC-3 prostate
  TGI: > 100 µM

## COC(=O)C1[C@@H](C(=O)OC)C12C=Cc1ccccc1C=C2 (stereo not given in full)
OVCAR-3 ovarian
  TGI: > 100 µM
RPMI-8226 leukemia
  TGI: > 100 µM
K-562 leukemia
  TGI: > 100 µM
U251 CNS
  TGI: > 100 µM
UACC-257 melanoma
  TGI: > 100 µM

## C#C[C@]1(O)CCC2C3CCc4cc(Oc5nc(F)nc(-c6c7cc8ccccc8cc7c7n6CCS7)n5)ccc4C3CCC21C (stereo not given in full)
OVCAR-3 ovarian
  TGI: > 100 µM
RPMI-8226 leukemia
  TGI: > 100 µM
K-562 leukemia
  TGI: > 100 µM
U251 CNS
  TGI: > 100 µM
HT29 colon
  TGI: 74.3 µM
UACC-257 melanoma
  TGI: > 100 µM

## CCCn1c(SCC)c2cc3cc4ccccc4cc3cc2c1-c1nc(F)nc(F)n1
OVCAR-3 ovarian
  TGI: > 100 µM
RPMI-8226 leukemia
  TGI: > 100 µM
K-562 leukemia
  TGI: > 100 µM
HT29 colon
  TGI: > 100 µM
CAKI-1 renal
  TGI: > 100 µM
UACC-257 melanoma
  TGI: > 100 µM

## CCCN1CN(C(C(=O)N[C@@H]2C(=O)N3C(C(=O)O)=C(C)CSC23)c2ccc(O)cc2)CSC1=S (stereo not given in full)
OVCAR-3 ovarian
  TGI: > 100 µM
RPMI-8226 leukemia
  TGI: > 100 µM
K-562 leukemia
  TGI: > 100 µM
U251 CNS
  TGI: > 100 µM
HT29 colon
  TGI: > 100 µM
CAKI-1 renal
  TGI: > 100 µM
UACC-257 melanoma
  TGI: > 100 µM

## Cn1c(NS(=O)(=O)c2ccccc2)nc2ccccc21
MDA-N
  TGI: > 100 µM
RPMI-8226 leukemia
  TGI: > 100 µM
K-562 leukemia
  TGI: > 100 µM
BT-549 breast
  TGI: > 100 µM
U251 CNS
  TGI: > 100 µM
HT29 colon
  TGI: > 100 µM
CAKI-1 renal
  TGI: > 100 µM
UACC-257 melanoma
  TGI: > 100 µM
HS 578T breast
  TGI: > 100 µM

## CC/C=C/C(=O)CC(O)(C(F)(F)F)C(F)(F)F
RPMI-8226 leukemia
  TGI: > 100 µM
U251 CNS
  TGI: > 100 µM
HT29 colon
  TGI: > 100 µM
UACC-257 melanoma
  TGI: > 100 µM
HS 578T breast
  TGI: > 100 µM

## COc1cc(Nc2cnc3cc(F)c(F)cc3n2)cc(OC)c1
MDA-N
  TGI: > 100 µM
OVCAR-3 ovarian
  TGI: > 100 µM
BT-549 breast
  TGI: > 100 µM
U251 CNS
  TGI: > 100 µM
HT29 colon
  TGI: > 100 µM
CAKI-1 renal
  TGI: > 100 µM
UACC-257 melanoma
  TGI: > 100 µM
HS 578T breast
  TGI: > 100 µM
PC-3 prostate
  TGI: > 100 µM

## COC(=O)c1ccccc1/C=C1\Cc2cc(C)cc(C)c2C1=O
MDA-N
  TGI: > 100 µM
OVCAR-3 ovarian
  TGI: > 100 µM
RPMI-8226 leukemia
  TGI: > 100 µM
K-562 leukemia
  TGI: > 100 µM
U251 CNS
  TGI: > 100 µM
HT29 colon
  TGI: > 100 µM
UACC-257 melanoma
  TGI: > 100 µM
HS 578T breast
  TGI: > 100 µM
PC-3 prostate
  TGI: > 100 µM

## c1cn2cc(-c3ccc4ncn(C5CCCCC5)c4c3)nc(-c3ccc4c(c3)ncn4C3CCCCC3)c2n1
OVCAR-3 ovarian
  GI50: 1.83 µM
  TGI: 3.36 µM
RPMI-8226 leukemia
  GI50: 0.806 µM
  TGI: 3.99 µM
K-562 leukemia
  GI50: 2.58 µM
  TGI: > 100 µM
BT-549 breast
  GI50: 1.94 µM
  TGI: 3.64 µM
U251 CNS
  GI50: 1.91 µM
  TGI: 3.65 µM
HT29 colon
  GI50: 2.44 µM
  TGI: 5.2 µM
CAKI-1 renal
  GI50: 1.46 µM
  TGI: 2.95 µM
UACC-257 melanoma
  GI50: 2.1 µM
  TGI: 3.62 µM
HS 578T breast
  GI50: 2.39 µM
  TGI: 6.74 µM

## NC(=O)C(c1ccccc1)N1OC2C(=O)N(c3cccc4ccccc34)C(=O)C2C1c1c2ccccc2c(Cl)c2ccccc12 (stereo not given)
MDA-N
  TGI: 7.88 µM
OVCAR-3 ovarian
  TGI: 17.5 µM
K-562 leukemia
  TGI: > 50 µM
BT-549 breast
  TGI: 22 µM
U251 CNS
  TGI: 15.9 µM
HT29 colon
  TGI: 14.7 µM
CAKI-1 renal
  TGI: 22.7 µM
UACC-257 melanoma
  TGI: 15.7 µM
HS 578T breast
  TGI: > 50 µM
PC-3 prostate
  TGI: 18.6 µM

## CN(C(=O)Cc1ccc(Cl)c(Cl)c1)[C@@H]1CCCC[C@H]1[N+]1(C)CC=CC1
MDA-N
  TGI: > 100 µM
OVCAR-3 ovarian
  TGI: > 100 µM
RPMI-8226 leukemia
  TGI: > 100 µM
K-562 leukemia
  TGI: > 100 µM
BT-549 breast
  TGI: > 100 µM
U251 CNS
  TGI: > 100 µM
HT29 colon
  TGI: > 100 µM
CAKI-1 renal
  TGI: > 100 µM
UACC-257 melanoma
  TGI: > 100 µM
PC-3 prostate
  TGI: > 100 µM

## COC(=O)C1=C(\c2ccccc2)c2ccccc2C(=O)N(C2CCCCC2)/C=C\1
MDA-N
  TGI: > 100 µM
OVCAR-3 ovarian
  TGI: 79.4 µM
K-562 leukemia
  TGI: > 100 µM
BT-549 breast
  TGI: 74.6 µM
U251 CNS
  TGI: 63.1 µM
HT29 colon
  TGI: > 100 µM
CAKI-1 renal
  TGI: 54.6 µM
UACC-257 melanoma
  TGI: 41.5 µM
PC-3 prostate
  TGI: > 100 µM

## O=C(c1cccs1)N(C(=S)N1CCN(c2ccccn2)CC1)C1CCCCC1
OVCAR-3 ovarian
  TGI: > 100 µM
RPMI-8226 leukemia
  TGI: > 100 µM
K-562 leukemia
  TGI: > 100 µM
U251 CNS
  TGI: > 100 µM
HT29 colon
  TGI: > 100 µM
CAKI-1 renal
  TGI: > 100 µM
UACC-257 melanoma
  TGI: > 100 µM

## Cc1cc(NCCCCCCCCCC[n+]2c(C)cc(N)c3ccccc32)c2ccccc2n1
MDA-N
  TGI: 3.61 µM
OVCAR-3 ovarian
  TGI: 65.9 µM
RPMI-8226 leukemia
  TGI: 2.28 µM
K-562 leukemia
  TGI: 2.36 µM
BT-549 breast
  TGI: > 100 µM
U251 CNS
  TGI: 4.3 µM
HT29 colon
  TGI: > 100 µM
CAKI-1 renal
  TGI: 30.7 µM
PC-3 prostate
  TGI: 13.7 µM

## C=C(Br)CN(C(C)=O)C1CCCCC1
MDA-N
  TGI: > 100 µM
OVCAR-3 ovarian
  TGI: > 100 µM
RPMI-8226 leukemia
  TGI: > 100 µM
K-562 leukemia
  TGI: > 100 µM
U251 CNS
  TGI: > 100 µM
HT29 colon
  TGI: > 100 µM
CAKI-1 renal
  TGI: > 100 µM
UACC-257 melanoma
  TGI: > 100 µM
HS 578T breast
  TGI: > 100 µM
PC-3 prostate
  TGI: > 100 µM

## C(=NCc1ccccc1)c1ccccc1-c1ccccc1C=NCc1ccccc1
MDA-N
  TGI: > 10 µM
OVCAR-3 ovarian
  TGI: > 10 µM
RPMI-8226 leukemia
  TGI: > 10 µM
K-562 leukemia
  TGI: 9.76 µM
U251 CNS
  TGI: > 10 µM
HT29 colon
  TGI: > 10 µM
CAKI-1 renal
  TGI: > 10 µM
UACC-257 melanoma
  TGI: 7.53 µM
PC-3 prostate
  TGI: > 10 µM

## COc1ccc(NC(C)=O)cc1C1CCC(=O)N1 (stereo not given)
OVCAR-3 ovarian
  TGI: > 100 µM
RPMI-8226 leukemia
  TGI: > 100 µM
K-562 leukemia
  TGI: > 100 µM
U251 CNS
  TGI: > 100 µM
HT29 colon
  TGI: > 100 µM
CAKI-1 renal
  TGI: > 100 µM
UACC-257 melanoma
  TGI: > 100 µM
HS 578T breast
  TGI: > 100 µM
PC-3 prostate
  TGI: > 100 µM

## COc1cc(NP(=O)(Oc2ccccc2)Oc2ccccc2)ccc1Nc1c2ccccc2nc2c1[nH]c1ccccc12
MDA-N
  TGI: 15.4 µM
OVCAR-3 ovarian
  TGI: 4.82 µM
K-562 leukemia
  TGI: 6.71 µM
U251 CNS
  TGI: 6.85 µM
HT29 colon
  TGI: 2.96 µM
CAKI-1 renal
  TGI: 17.3 µM
UACC-257 melanoma
  TGI: > 48.5 µM
HS 578T breast
  TGI: 98.1 µM
PC-3 prostate
  TGI: > 89.7 µM
